Assays:
[1] = system: B16; assay: In vitro cytotoxic activity, Calcein AM; assay type: cell-based; settings: Mus musculus, B16, 72 h, three days
[2] = target: MMK1 protein kinase (Vicia faba, UniProt A0AAV1B7B8); assay: MMK1 protein kinase activity; assay type: biochemical
Method: Protein extraction and purification of pant CDK by binding to p13^suc1-beads or immunopurification with an antibody specific to the cdc2a-MS protein was carried out as described previously (Bögre et al. 1997, Plant Physiol. 113, 1997, 841-852). The MMK1 protein kinase was purified with a specific antibody from Vicia faba extracts as described by Bögre et al. 1997a, Plant Cell 9, 75-83). Protein kinase activity was measures as described above in Example 20. The quantification of radioactivity incorporated into histone H1 or myelin basic protein was undertaken using phosphoimager (FIG. 2).

[3] = system: normal human lymphocytes; assay: Immunosuppressive activity, 3H-thymidine incorporation in concanavalin A activated lymphocytes; assay type: cell-based; settings: Lymphocyte, 72 hours, [3H]-TdR, read-out: Human lymphocytes ED50
Method: Human heparinized peripheral blood was obtained from healthy volunteers by cubital vein punction. The blood was diluted in PBS (1:3) and mononuclear cells were separated by centrifugation in Ficoll-Hypaque density gradient (Pharmacia, 1.077 g/ml) at 2200 rpm for 30 minutes. Following centrifugation, lymphocytes were washed in PBS and resuspended in cell culture medium (RMPI 1640, 2 mM glutamine, 100 U/ml penicillin, 100 μg/ml streptomycin, 10% fetal calf serum and sodium bicarbonate).
The cells were diluted at target density of 1.100.000 cells/ml were added by pipette (180 μl) into 96/well microtiter plates. Four-fold dilutions of the intended test concentration were added at time zero in 20 μl aliquots to the microtiter plate wells. Usually, test compound was evaluated at six 4-fold dilutions. In routine testing, the highest well concentration was 266.7 μM. All drug concentrations were examined in duplicates. All wells with exception of unstimulated controls were activated with 50 μl of concanavalin A (25 μg/ml). Incubations of cells with test compounds lasted for 72 hours at 37° C., in 5% CO2 atmosphere and 100% humidity. At the end of incubation period, the cells were assayed by using the [^3H]-TdR:
Cell cultures were incubated with 0.5 μCi (20 μl of stock solution […]) per well for 6 hours at 37° C. and 5% CO2. The automated cell harvester was used to lyse cells in water and adsorb the DNA onto glass-fiber filters in the format of microtiter plate. The DNA incorporated [^3H]-TdR was retained on the filter while unincorporated material passes through. The filters were dried at room temperature overnight, sealed into a sample bag with 10-12 ml of scintillant. The amount of [^3H]-TdR present in each filter (in cpm) was determined by scintillation counting in a Betaplate liquid scintillation counter. The effective dose of immunosuppressant (ED) was calculated using the following equation: ED=(CCPMdrug exposed well/mean CCPMcontrol wells)×100%.

[4] = system: CEM (human lymphoblastoid leukemia); assay: In vitro cytotoxic activity, Calcein AM; assay type: cell-based; settings: Homo sapiens, 72 h, three days
In short: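 CEM cells were seeded at 10^4/well in DMEM + 10% FBS and exposed to six concentrations from 200 to 0.2 μM, in triplicate, for 3 days at 37 °C and 5% CO2. Viable cells were then measured by Calcein AM fluorescence after 1 h loading.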

[5] = system: human diploid fibroblasts (HCA cells); assay: Inhibition of senescence, β-galactosidase staining of fibroblasts; assay type: cell-based; settings: for SENESCENT CELLS (%) HCA25: HCA cells passage 25, β-galactosidase staining; for SENESCENT CELLS (%) HCA45: HCA cells passage 45, β-galactosidase staining; for SENESCENT CELLS (%) HCA80: HCA cells passage 80, β-galactosidase staining
Method: In this example, human diploid fibroblasts (HCA cells of various passage levels: passage 25—designated HCA25; passage 45—designated HCA45; passage 80—designated HCA80) were stained for β-galactosidase activity. The medium present on cultured cells was removed, the cells were washed twice in […], and fixed in 2-3 ml of fixing solution comprised of a 2% formaldehyde and 0.2% glutaraldehyde in PBS. The cells were incubated at room temperature for 5 minutes, then washed twice with PBS. The cells were then incubated at 37° C. […] In this experiment, senescent cells, but not other cells were stained blue due to the action of β-galactosidase on the substrate (FIG. 9).

[6] = system: PHA-stimulated lymphocytes (PBMC); assay: Proliferation of PHA-stimulated lymphocytes (PBMC), flow cytometric cell count; assay type: cell-based, human; settings: 96 hours, IL-2
Method: Peripheral blood mononuclear cells (PBMC): Human peripheral blood mononuclear cells were isolated by density gradient (Ficoll-Hypaque) (LSM, ICN Biomedicals Inc.). PBMC were stimulated with 5 μg/ml phytohemaglutinin A (PHA) (Sigma) during 24-48 hours in IMDM supplemented with 10% FCS at 37° C. After washing off the PHA, PBMC were incubated with interleukin-2 (IL-2) (10 U/ml) (Genzyme).
(§1) Cells were plated at 10000 per well in 200 μl IMDM medium and incubated with 0-50 μM of the novel compounds (Tab 8), by addition of drug directly to the culture medium and incubated at 37° C. for 96 hours (Tab 8). Absolute cell number was determined by addition of a known concentration Fluoresbrite microspheres (FITC) (Polysciences, Inc.). The absolute number of cells/well was calculated as: {(total number of beads added/well)/(number of beads measured)×(number of measured cells in the gate of interest)}. All analyses were performed with a FACScan (BD), using CELLQuest software (Becton Dickinson).
PHA-stimulated lymphocytes (PBMC) were tested for their cytotoxicity as one of the normal counterparts of the cell lines. Cells were grown for 96 hours in the presence of IL-2 and different concentrations of the novel compounds and cell number was counted on the flow cytometer.

[7] = system: myeloid leukemia KG1 cell line; assay: Cell proliferation of KG1, flow cytometric cell count; assay type: cell-based, human; settings: 96 hours; read-out: KG1 IC50
Method: (§2) Cell lines: Human leukemic cell lines were obtained from the American Type Culture Collection (ATCC, Rockville, Md., USA). They were cultured in Iscove's Modified Dulbecco's Medium (IMDM) supplemented with 10% heat inactivated fetal calf serum (FCS), 200 U/ml penicillin, 200 μg/ml streptomycin and 1 μg/ml amphotericin B. Cells were cultured in a 5% CO2-95% air fully humidified incubator. For effects on clonogenic output, 1000 cells/well were plated in duplicate in methylcellulose (0.9%), supplemented with 20% FCS for 14 days.
as §1
(§3) Response of the myeloid leukemia KG1 and T-lymphocyte leukemia Molt3 cell lines to the cytostatic effect of the novel compounds was determined using the above-mentioned standardized bead suspension that was used to determine the absolute cell number by flow cytometric (FCM) measurement. Cells were grown in the presence of increasing concentration of the novel compounds.
To determine reversibility of the effects of the novel compounds, cells were plated at 10000 per well and exposed to 0-50 μM of the compounds for the time indicated, followed by washing in phosphate-buffered saline (PBS) (Life Technologies) and reseeded into drug-free medium for 7 additional days. An identical set of cells was plated and exposed to the drugs for 7 additional days. After 7 days (168 hours), the relative cell number was assayed by flow cytometry.

[8] = system: T-lymphocyte leukemia Molt3 cell line; assay: Cell proliferation of Molt3, flow cytometric cell count; assay type: cell-based, human; settings: 96 hours
Method: as §2, §1, §3

Sequence of MMK1 protein kinase (A0AAV1B7B8 1-394): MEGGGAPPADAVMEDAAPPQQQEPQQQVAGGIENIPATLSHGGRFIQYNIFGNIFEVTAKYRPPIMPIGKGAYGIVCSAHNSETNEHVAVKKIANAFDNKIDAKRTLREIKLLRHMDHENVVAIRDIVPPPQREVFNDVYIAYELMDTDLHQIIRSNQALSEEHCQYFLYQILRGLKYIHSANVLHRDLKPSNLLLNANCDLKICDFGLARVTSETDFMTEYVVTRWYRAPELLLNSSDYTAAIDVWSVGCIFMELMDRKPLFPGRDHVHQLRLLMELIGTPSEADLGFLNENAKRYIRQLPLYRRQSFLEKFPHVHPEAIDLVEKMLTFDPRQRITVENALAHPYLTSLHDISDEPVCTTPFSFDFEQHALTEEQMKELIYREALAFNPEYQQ

| IC50 [2] | Compound | GI50 [1] | EC50 [3] | GI50 [4] | further results |
| --- | --- | --- | --- | --- | --- |
| 0.012 µM | CC(C)c1n[nH]c2c(Nc3cccc(Cl)c3)nc(NC3CCCCC3N)nc12 (centres unmarked) | 28 µM | 0.2 µM | 14 µM |  |
| 0.08 µM | CC(C)c1n[nH]c2c(Nc3cccc(Cl)c3)nc(NCCCN)nc12 | 18 µM | 4.5 µM | 15 µM |  |
| 29.3 µM | Cc1n[nH]c2c(NCc3ccccc3)nc(NCCO)nc12 | 47 µM | 34 µM | 45 µM |  |
| 0.19 µM | CC(C)c1n[nH]c2c(Nc3cccc(Cl)c3)nc(N(CCO)CCO)nc12 | 34 µM | 7 µM | 21 µM |  |
| 1.1 µM | CC(C)c1n[nH]c2c(NCc3ccccc3)nc(N(CCO)CCO)nc12 | 38 µM | 16 µM | 25 µM |  |
| 0.25 µM | CC(C)c1n[nH]c2c(Nc3cccc(Cl)c3)nc(NCCN)nc12 | 22 µM | 6.7 µM | 16 µM |  |
| 1.4 µM | Cc1n[nH]c2c(NCc3ccccc3)nc(NCCCN)nc12 | 38 µM | 12.4 µM | 32 µM |  |
| 0.8 µM | CC(C)c1n[nH]c2c(NCc3ccccc3)nc(NCCCO)nc12 | 32 µM | 21 µM | 21 µM |  |
| 0.03 µM | CC[C@H](CO)Nc1nc(NCc2ccccc2)c2n[nH]c(C(C)C)c2n1 | 3.2 µM | 4.5 µM | 2.4 µM |  |
| 15 µM | Cc1n[nH]c2c(NCc3ccccc3)nc(NCCN)nc12 [2-aminoethylamino / benzylamino / methyl] | 41 µM | 14.7 µM | 35 µM |  |
| 5.8 µM | Cc1n[nH]c2c(NCc3ccccc3)nc(NCCCO)nc12 | 41 µM | 28 µM | 40 µM |  |
| 0.02 µM | CC(C)c1n[nH]c2c(NCc3ccccc3)nc(NC3CCCCC3N)nc12 (centres unmarked) | 28 µM | 0.8 µM | 14 µM |  |
| 0.9 µM | Cc1n[nH]c2c(NCc3ccccc3)nc(NC3CCCCC3N)nc12 (centres unmarked) | 3.2 µM | 1.2 µM | 2.3 µM |  |

Second part, the compound before the results:

| Compound | IC50 [2] | GI50 [1] | EC50 [3] | GI50 [4] | further results |
| --- | --- | --- | --- | --- | --- |
| CC(C)c1n[nH]c2c(NCc3ccccc3)nc(NCCCN)nc12 |  | 28 µM | 9.8 µM | 24 µM |  |
| Clc1ccc(Nc2ncnc3cn[nH]c23)cc1 [H / 4-chloroanilino / H] |  |  |  |  | SENESCENT CELLS (%) HCA25 [5]: 3%; SENESCENT CELLS (%) HCA45 [5]: 6%; SENESCENT CELLS (%) HCA80 [5]: 27% |
| Nc1c(Cl)ccc(CNc2ncnc3cn[nH]c23)c1N [H / 2,3-diamino-4-chlorobenzylamine / H] |  |  |  |  | SENESCENT CELLS (%) HCA25 [5]: 3%; SENESCENT CELLS (%) HCA45 [5]: 3%; SENESCENT CELLS (%) HCA80 [5]: 18% |
| CC(C)c1n[nH]c2c(Nc3cccc(Cl)c3)nc(NCCO)nc12 | 0.28 µM | 29 µM | 17 µM | 18 µM | SENESCENT CELLS (%) HCA25 [5]: 4%; SENESCENT CELLS (%) HCA45 [5]: 4%; SENESCENT CELLS (%) HCA80 [5]: 38% |
| CC(C)c1n[nH]c2c(NCc3ccccc3)nc(NCCO)nc12 | 2.3 µM | 37 µM | 27 µM | 25 µM |  |
| CC(=O)c1ccccc1CNc1ncnc2cn[nH]c12 [H / 2-acetylbenzylamino / H] |  |  |  |  | SENESCENT CELLS (%) HCA25 [5]: 3%; SENESCENT CELLS (%) HCA45 [5]: 5%; SENESCENT CELLS (%) HCA80 [5]: 28% |
| CC(C)c1n[nH]c2c(Nc3cccc(Cl)c3)nc(NC3CCC(N)CC3)nc12 (centres unmarked) | 0.012 µM | 1.3 µM | 0.5 µM | 0.5 µM | SENESCENT CELLS (%) HCA25 [5]: 4%; SENESCENT CELLS (%) HCA45 [5]: 5%; SENESCENT CELLS (%) HCA80 [5]: 35% |
| CC(C)c1n[nH]c2c(NCc3ccccc3)nc(NCCN)nc12 | 1.2 µM | 42 µM | 11.5 µM | 26 µM |  |
| CN(Cc1ccc(O)c(O)c1)c1ncnc2cn[nH]c12 |  |  |  |  | SENESCENT CELLS (%) HCA25 [5]: 4%; SENESCENT CELLS (%) HCA45 [5]: 4%; SENESCENT CELLS (%) HCA80 [5]: 22% |
| 5-(3-hydroxypropylamino)-7[N-(3,4-dihydroxybenzyl-N-methyl]amino-3-isopropylpyrazolo[4,3-d]pyrimidine [Compound 50] |  |  |  |  | IC50 [6]: 15 ± 7.3 µM; IC50 [7]: 21 µM; IC50 [8]: 21 µM |
| Cc1n[nH]c2c(NCc3ccccc3)nc(N(CCO)CCO)nc12 | 8.1 µM | 40 µM | 25 µM | 35 µM |  |
| CC(C)c1n[nH]c2c(Nc3cccc(Cl)c3)nc(NCCCO)nc12 | 0.2 µM | 33 µM | 12 µM | 15 µM |  |
| CCC(CO)Nc1nc(NCc2ccc(O)c(O)c2)c2ncn(C(C)C)c2n1 (centres unmarked) [Compound 243, 2-(1-ethyl-2-hydroxyethylamino)-6(3,4-dihydroxybenzylamino)-9-isopropylpurine] |  |  |  |  | IC50 ([6]; Homo sapiens, Lymphocyte): 9 ± 6.6 µM; IC50 ([8]; Homo sapiens, MOLT-3): 9 ± 1.2 µM |
| Cc1n[nH]c2c(NCc3ccccc3)nc(NC3CCC(N)CC3)nc12 (centres unmarked) | 0.6 µM | 2.5 µM | 1.5 µM | 1.7 µM |  |
| Nc1cc(CNc2ncnc3cn[nH]c23)ccc1Cl [H / 3-amino-4-chlorobenzylamine / H] |  |  |  |  | SENESCENT CELLS (%) HCA25 [5]: 4%; SENESCENT CELLS (%) HCA45 [5]: 5%; SENESCENT CELLS (%) HCA80 [5]: 21% |
| CC(C)c1n[nH]c2c(NCc3ccccc3)nc(N[C@@H](CO)C(C)C)nc12 |  | 2.3 µM | 6.5 µM | 2.2 µM |  |
| CC(C)c1n[nH]c2c(NCc3ccccc3)nc(NC3CCC(N)CC3)nc12 (centres unmarked) | 0.02 µM | 2.3 µM | 1.1 µM | 1.5 µM |  |
